The numbers were not newly measured in patent US10351563B2, “Biaryl kinase inhibitors” (BRISTOL-MYERS SQUIBB COMPANY, priority 2014, dated 2019), which cites them from elsewhere.

Data set [1] deals with AAK1 (Homo sapiens (Human), UniProt Q2M2I8).
For data set [2], the system named is PC12 cells.
Data set [3] has as its system HCV. To be noted: Huh-7.5 cells.

Chain of AAK1 (Q2M2I8 whole entry, species assumed): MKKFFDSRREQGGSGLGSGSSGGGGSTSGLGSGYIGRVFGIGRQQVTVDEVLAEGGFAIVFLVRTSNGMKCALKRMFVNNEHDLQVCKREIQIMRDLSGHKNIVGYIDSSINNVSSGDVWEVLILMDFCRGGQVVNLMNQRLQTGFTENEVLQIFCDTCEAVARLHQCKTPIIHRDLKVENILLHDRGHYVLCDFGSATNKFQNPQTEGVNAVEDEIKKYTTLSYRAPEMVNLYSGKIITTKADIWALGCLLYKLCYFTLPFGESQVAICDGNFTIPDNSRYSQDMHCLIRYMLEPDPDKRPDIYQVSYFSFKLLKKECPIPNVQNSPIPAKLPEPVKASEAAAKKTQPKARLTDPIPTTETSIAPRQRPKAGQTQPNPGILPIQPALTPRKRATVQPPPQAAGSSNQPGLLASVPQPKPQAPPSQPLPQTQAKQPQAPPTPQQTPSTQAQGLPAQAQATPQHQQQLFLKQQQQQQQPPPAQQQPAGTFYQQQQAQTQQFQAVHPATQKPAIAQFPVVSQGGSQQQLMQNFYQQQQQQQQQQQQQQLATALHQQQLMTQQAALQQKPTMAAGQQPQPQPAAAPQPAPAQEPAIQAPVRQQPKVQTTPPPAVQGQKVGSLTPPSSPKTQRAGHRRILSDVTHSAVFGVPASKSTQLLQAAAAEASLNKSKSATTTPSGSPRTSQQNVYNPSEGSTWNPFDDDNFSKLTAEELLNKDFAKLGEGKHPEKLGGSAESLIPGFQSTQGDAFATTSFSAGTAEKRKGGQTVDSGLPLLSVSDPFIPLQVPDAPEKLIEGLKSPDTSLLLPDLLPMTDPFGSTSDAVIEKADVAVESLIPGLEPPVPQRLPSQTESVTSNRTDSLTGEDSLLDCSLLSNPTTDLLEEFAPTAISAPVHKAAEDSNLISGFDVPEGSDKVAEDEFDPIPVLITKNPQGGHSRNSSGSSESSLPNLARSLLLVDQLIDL

On to `COC(=O)[C@@]1(O)C[C@H]2O[C@]1(C)n1c3ccccc3c3c4c(c5c6ccccc6n2c5c31)C(=O)NC4` [Example K252a, K252a], for which the “AAK1 kinase activity inhibition” value in data set [1] is given as “inhibits AAK1 kinase activity”. Further, the “Neuregulin-1 induced neurite outgrowth” value in data set [2] is on record as “potentiation of Neuregulin-1 induced neurite outgrowth”.

Consider `CCN(CC)CCNC(=O)c1c(C)[nH]c(/C=C2\C(=O)Nc3ccc(F)cc32)c1C` [sunitinib], for which the “AAK1 kinase activity inhibition” value in data set [1] is “potent AAK1 inhibitor”. Also, in data set [3], the HCV entry entry is given as “inhibit HCV entry” and the HCV virion assembly result was “reduced HCV virion assembly”.
